Publication PMC4546618, “Casitas B-Lineage Lymphoma RING Domain Inhibitors Protect Mice against High-Fat Diet-Induced Obesity and Insulin Resistance” (PLoS ONE, 2015)
Like-named read-outs stand apart in the source and are kept apart here. *1 amine or outer side, *2 acyl side, *3 side chain or, on linkers, in order; H or OH if unused. Where a SMILES comes first, the peptide text is derived from it. [ ]: non-standard residue; d: D form. X2 = CC(=O)CN(CCCC[C@H](N[*:1])C(=O)[*:2])C(C)=O; Pro(trans-4-F) = O=C(O)[C@@H]1C[C@@H](F)CN1; X1 = CC(=O)N(O)CCCC[C@H](N[*:1])C(=O)[*:2]; Phe(3-F) = N[C@@H](Cc1cccc(F)c1)C(=O)O; Phe(4-F) = N[C@@H](Cc1ccc(F)cc1)C(=O)O; Phe(4-Me) = Cc1ccc(C[C@H](N)C(=O)O)cc1; ΔPro = O=C(O)[C@@H]1C=CCN1; Pip = O=C(O)[C@@H]1CCCCN1; Thz = O=C(O)[C@@H]1CSCN1; Aze = O=C(O)[C@@H]1CCN1

Key:
[1] = tested on: mice fed a high-fat diet; experiment: Glucose tolerance test after 12 weeks of treatment on high-fat diet; type: in vivo; conditions: overnight fasted mice, 2 g/kg glucose i.p., after 12 weeks daily i.p. 5 mg/kg on high-fat diet
Description: (§1) All experiments were approved by the institutional Animal Care and Use Committee (Chengdu Medical College, China). All experiments were carried out in 10-week-old male mice maintained on the C57BL/6 background. All the animals were kept on a 12-h light/dark cycle with free access to food and water.
(§2) Animals (n = 90) were randomly assigned to one of the nine groups (Table 1). Animals were fed ad libitum with a high-fat diet (60% of caloric intake from fat (70% saturated fat), 20% from carbohydrates, and 20% from protein) before experiments and for another 12 weeks during the experiments. Food intake was measured manually on a daily basis. Eight groups of animals were treated with indicated peptides with a daily i.p. injection at 5 mg/kg and one group of animals were treated with vehicle.
After receiving 12 weeks of treatment as described above, glucose tolerance tests were performed in overnight fasted mice. Each mouse received a 2 g/kg glucose through i.p. Blood samples were obtained from the tail tip at 0, 30, 60, 90, and 120 min. Insulin concentrations were measured using mouse insulin Elisa kits (ChrystalChem) using mouse standards. Glucose levels were measured using a glucometer (Roche).

[2] = tested on: mice fed a high-fat diet; experiment: Indirect energy expenditure and physical activity measurement; type: in vivo; conditions: after 12 weeks daily i.p. 5 mg/kg on high-fat diet; for Oxygen consumption VO2: vehicle 4.15 ± 0.55; for Ambulatory day activity / Ambulatory night activity: photobeam break counts; for Ambulatory day activity: vehicle 2,069 ± 705; for Ambulatory night activity: vehicle 6,289 ± 1,216
Description: as §1, §2
After receiving 12 weeks of treatment as described above, rates of oxygen consumption (VO2) was measured using a four-chamber indirect calorimeter (Langguan, China, air flow of 0.5 l/min). A total of 2-hour measurement for each animal was conducted at 15-minuate intervals under room temperature (22°C). Ambulatory activity was estimated by counting the number of photobeam breaks in a three-sensor chamber instrument (Rui Pharm, China), and the cumulative ambulatory activity counts were recorded every hour. A total of 12 h-day time and 12 h-night activity were recorded for each animal.

[3] = Pharmacokinetic studies, plasma concentration after i.p. injection; type: in vivo; conditions: mice, i.p. 4 mg/kg; for Cmax: male, C57BL/6, mouse, plasma, ip, read-out: maximum concentration in plasma
Description: as §1
Peptides (1, 3, 10, 34, 2, 60, 49, and 51) were dissolved in sterile aqueous 5% dextrose and administered to mice by i.p. injection (4 mg/kg). Blood samples were collected from the tail tip at 0, 0.5, 1, 6, 12, 18, 24 and 48 hours. Plasma samples were harvested by centrifugation and stored at -80°C until assayed. Peptide concentrations in plasma were determined by Reversed-Phase High-Performance Liquid Chromatography (RP-HPLC) with electrospray ionization mass spectrometric ([…]) detection. Samples were assayed with a series of 8 calibration standards of peptide in plasma at concentrations ranging from 50 to 6000 μg/L. Peptide concentrations were determined by comparing to the standards.

[4] = target: T1, Cbl (RING) protein (Homo sapiens, UniProt P22681); experiment: Fluorescence polarization (FP) assay, competition with FITC-βA-PFKPP-NH2 probe; type: binding; conditions: probe FITC-βA-PFKPP-NH2 100 nmol/L, Cbl (RING) protein 3 μmol/L, PBS pH 7.4
T1 construct: including the linker and RING domain (codon 358–457); GST (Glutathione S-Transferase); made in house
T1 sequence (P22681 358-457): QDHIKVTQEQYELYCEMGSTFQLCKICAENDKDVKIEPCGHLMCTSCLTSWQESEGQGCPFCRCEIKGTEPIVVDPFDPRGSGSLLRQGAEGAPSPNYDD
Description: Peptides and peptide mimetics were purchased from MitenChem (China) with a purity ≥ 98%. Concentrations values of reconstituted peptides were determined by amino acid analysis at the protein core facility (Chengdu Medical College). The recombinant Cbl protein was produced by the Chengdu Medical College Protein Core Facility and was described previously. The c-Cbl (RING) protein, including the linker and RING domain (codon 358–457), was tagged with Glutathione S-Transferase (GST) and purified with GSH-Sepharose (Shanghai Biopharma).
The FP assay was developed and validated previously. Briefly, fluorescein-labeled probe (FITC-βA-PFKPP-NH2, 100 nmol/L) and Cbl (RING) protein (3 μmol/L) were mixed and diluted to the final concentration using 0.01% Triton X-100 in PBS (pH = 7.4). Then, 19 μl of this master mix was loaded to each reaction well. The peptides or peptide mimetics were then loaded to the designated wells (1 μl, 10 μmol/L– 0.078 μmol/L, half-fold dilutions). The total fluorescence and polarization values were measured at an excitation wavelength of 485 nm and an emission wavelength of 538 nm using a ZS-2 plate reader. The data was fitted, and the ΔmP, Kd, and Ki values were estimated, using SigmaPlot 11.0.

[5] = tested on: mice fed a high-fat diet; experiment: High-fat diet-induced obesity: body weight, food intake, body composition, adipocyte volume; type: in vivo; conditions: daily i.p. 5 mg/kg, 12 weeks; for percentage of perigonadal fat mass: NMR, vehicle 8 ± 0.8%; for adipocyte volume: adipocytes from epididymal fat pad, vehicle 510 ± 42 pL
Description: as §1, §2
Body composition was measured using nuclear magnetic resonance (NMR) technology at Chengdu College core facility. Epididymal fat pads were excised and adipocytes were isolated. Cells were then fixed using 2% OsO4 in PBS overnight at 37°C [2].

[6] = tested on: mice; experiment: Acute toxicity in mice; type: in vivo; conditions: up to 15 mg/kg i.p.; for signs of acute toxicity: 72 hours; for death of animals: another 14 days following the initial examination; for H&E staining of livers, spleens and kidneys: end of experiment
Description: as §1
The control group (n = 10) received vehicle only. Eight groups (10 mice each) were treated with increasing doses of either peptide 1, 3, 10, 34, 2, 60, 49, and 51 up to 15 mg/kg by i.p. Number of death, sedation, spontaneous motor activity, alertness, ptosis, dyspnea, convulsion, diarrhea, urination, postural reflex, piloerection, nociception, grooming, vocalization, rearing, climbing and aggression were observed every 12 hours for 72 h. Animals were maintained for another 14 days after the initial examination. We planned to sacrifice the animals if they show severe signs of pain or distress, a body weight loss in excess of 15% of its body weight, or a deterioration of the body condition score to BC2(-) or below. However, none of the animals qualified for the mentioned the symptoms. No animals died during the whole study. At the end of the experiment, animals were euthanized by CO2 asphyxiation followed by cervical dislocation, the livers, spleens and kidneys were collected and formalin-fixed paraffin-embedded for H&E staining.

## Ac-PFKPP-NH2 [Peptide 1, Ac-PFKPP-NH2]
[1]
  glucose tolerance compared to the vehicle group: not statistically significant
[2]
  Oxygen consumption VO2: 3.95 ± 0.22 mL/g/h
  Ambulatory day activity: 2,152 ± 865 per 12 h
  Ambulatory night activity: 5,941 ± 1,355 per 12 h
[3]; observed in 30 min
  Cmax: 3080 ng/mL
[4]
  Ki: 7.2 ± 0.5 µM
[5]
  percentage of perigonadal fat mass: 6.2 ± 0.7%
  adipocyte volume: 430 ± 35 pL
[6]
  signs of acute toxicity: did not show vital signs of acute toxicity
  death of animals: None of the animals died
  H&E staining of livers, spleens and kidneys: does not show any sign of injuries

## CC(=O)N[C@@H](CCCCN)C(=O)N1C[C@H](F)C[C@H]1C(=O)N[C@@H](C)C(=O)N[C@@H](CC(C)C)C(=O)N[C@@H](CCCCN)C(N)=O [Peptide 60, Ac-K(t)ALK-NH2] (Ac-K[Pro(trans-4-F)]ALK-NH2)
[2]
  Oxygen consumption VO2: 4.16 ± 0.29 mL/g/h
  Ambulatory day activity: 2,025 ± 945 per 12 h
  Ambulatory night activity: 5,993 ± 1,278 per 12 h
[3]; observed in 60 min
  Cmax: 4280 ng/mL
[3]; at each time point after 1 hour
  plasma concentrations compared to the parental peptides 1 and 2: greater plasma concentrations
[4]
  Ki: 228 ± 20.2 µM
[5]
  percentage of perigonadal fat mass: 7.8 ± 0.7%
  adipocyte volume: 520 ± 26 pL
[6]
  signs of acute toxicity: did not show vital signs of acute toxicity
  death of animals: None of the animals died
  H&E staining of livers, spleens and kidneys: does not show any sign of injuries

## Ac-KPATK-NH2 [Peptide 2, Ac-KPATK-NH2]
[2]
  Oxygen consumption VO2: 4.22 ± 0.42 mL/g/h
  Ambulatory day activity: 2,342 ±1,002 per 12 h
  Ambulatory night activity: 6,721 ± 1,032 per 12 h
[3]; observed in 30 min
  Cmax: 3370 ng/mL
[4]
  Ki: 4.7 ± 1.2 µM
[5]
  percentage of perigonadal fat mass: 6.7 ± 0.5%
  adipocyte volume: 440 ± 58 pL
[6]
  signs of acute toxicity: did not show vital signs of acute toxicity
  death of animals: None of the animals died
  H&E staining of livers, spleens and kidneys: does not show any sign of injuries

## CC(=O)N[C@@H](CCCCN)C(=O)N1CC[C@H]1C(=O)N[C@@H](C)C(=O)N[C@H](C(=O)N[C@@H](CCCCN)C(N)=O)[C@@H](C)O [Peptide 48, Ac-K(q)ATK-NH2] (Ac-K[Aze]ATK-NH2)
[4]
  Ki: 59.6 ± 13.5 µM

## CC(=O)N1CC[C@H]1C(=O)N[C@@H](Cc1cccc(F)c1)C(=O)N[C@@H](CCCCN)C(=O)N1CCC[C@H]1C(=O)N1CCC[C@H]1C(N)=O [Peptide 33, Ac-(q) (h)KPP-NH2] (Ac-[Aze][Phe(3-F)]KPP-NH2)
[4]
  Ki: > 250 µM

## CC(=O)N[C@@H](CCCCN)C(=O)N1C[C@H](F)C[C@H]1C(=O)N[C@@H](C)C(=O)N[C@H](C(=O)N[C@@H](CCCCN)C(N)=O)C(C)C [Peptide 58, Ac-K(t)AVK-NH2] (Ac-K[Pro(trans-4-F)]AVK-NH2)
[4]
  Ki: 126 ± 3.2 µM

## CC(=O)N1CCC[C@H]1C(=O)N[C@@H](Cc1cccc(F)c1)C(=O)N[C@@H](CCCCN)C(=O)N1CCC[C@H]1C(=O)N1CCCC[C@H]1C(N)=O [Peptide 21, Ac-P(h)KP(s)-NH2] (Ac-P[Phe(3-F)]KP[Pip]-NH2)
[4]
  Ki: 90.9 ± 0.7 µM

## CC(=O)N1CCC[C@H]1C(=O)N[C@@H](Cc1ccc(C)cc1)C(=O)N[C@@H](CCCCN)C(=O)N1CCC[C@H]1C(=O)N1CCC[C@H]1C(N)=O [Peptide 8, Ac-P(f)KPP-NH2] (Ac-P[Phe(4-Me)]KPP-NH2)
[4]
  Ki: 5.4 ± 2.2 µM

## CC(=O)N1CCC[C@@H]1C(=O)N[C@@H](Cc1cccc(F)c1)C(=O)N[C@@H](CCCCN)C(=O)N1CCC[C@H]1C(=O)N1CCC[C@H]1C(N)=O [Peptide 31, Ac-(o) (h)KPP-NH2] (Ac-[dP][Phe(3-F)]KPP-NH2)
[4]
  Ki: 4.5 ± 0.5 µM

## CC(=O)N(O)CCCC[C@H](NC(=O)[C@H](Cc1cccc(F)c1)NC(=O)[C@@H]1CSCN1C(C)=O)C(=O)N1CCC[C@H]1C(=O)N1CCC[C@H]1C(N)=O [Peptide 38, Ac-(r) (h) (v)PP-NH2] (Ac-[Thz][Phe(3-F)][X1]PP-NH2)
[4]
  Ki: 21.6 ± 2.6 µM

## CC(=O)N1CCC[C@H]1C(=O)N[C@@H](Cc1ccc(F)cc1)C(=O)N[C@@H](CCCCN)C(=O)N1CCC[C@H]1C(=O)N1CCC[C@H]1C(N)=O [Peptide 11, Ac-P(i)KPP-NH2] (Ac-P[Phe(4-F)]KPP-NH2)
[4]
  Ki: 2.4 ± 0.5 µM

## CC(=O)N1CCC[C@H]1C(=O)N[C@@H](Cc1cccc(F)c1)C(=O)N[C@@H](CCCCN)C(=O)N1CC=C[C@H]1C(=O)N1CCC[C@H]1C(N)=O [Peptide 25, Ac-P(h)K(p)P-NH2] (Ac-P[Phe(3-F)]K[ΔPro]P-NH2)
[4]
  Ki: > 250 µM

## CC(=O)CN(CCCC[C@H](NC(=O)[C@H](Cc1cccc(F)c1)NC(=O)[C@@H]1CSCN1C(C)=O)C(=O)N1CCC[C@H]1C(=O)N1CCC[C@H]1C(N)=O)C(C)=O [Peptide 39, Ac-(r) (h) (w)PP-NH2] (Ac-[Thz][Phe(3-F)][X2]PP-NH2)
[4]
  Ki: 28.3 ± 2.8 µM

## CC(=O)N1CCC[C@H]1C(=O)N[C@@H](Cc1cccc(F)c1)C(=O)N[C@@H](CCCCN)C(=O)N1CCC[C@H]1C(=O)N1CC=C[C@H]1C(N)=O [Peptide 18, Ac-P(h)KP(p)-NH2] (Ac-P[Phe(3-F)]KP[ΔPro]-NH2)
[4]
  Ki: > 250 µM

## CC(=O)N[C@@H](CCCCN(O)C(C)=O)C(=O)N1CCC[C@H]1C(=O)N[C@@H](C)C(=O)N[C@H](C(=O)N[C@@H](CCCCN)C(N)=O)[C@@H](C)O [Peptide 40, Ac-(v)PATK-NH2] (Ac-[X1]PATK-NH2)
[4]
  Ki: 51.8 ± 0.8 µM
